Among the data in US11358965B2, “EGFR dimer disruptors and use of the same” (THE REGENTS OF THE UNIVERSITY OF MICHIGAN, priority 2018, dated 2022) are IC50, viability and survival values, retold here.

In general, IC50 refers to the concentration that gives 50% inhibition. A high value points to lower potency. As a reminder, the viability is the share of living cells, or the viability signal relative to a control. Read a high viability as better survival.

Counter-ions that a name gives are not always drawn.

Assay [1] has as its system UM1 cells. The assay is described as follows: Clonogenic IC50, UM1. In kind it is cell-based.
Assay [2] relates to RKO cells. Put plainly: Clonogenic IC50, RKO. In kind it is cell-based. The following applies: Homo sapiens.
The test system of assay [3] is cells. Put plainly: Cell Titer Blue % cell viable (24 hrs). In kind it is cell-based. The following applies: 24 h; for viability at 15 µM: Conc 15 μM; for viability at 7.5 µM: Conc 7.5 μM; for viability at 30 µM: Conc 30 μM. Here is the method:
The viability of cells upon treatment was assessed by CellTiter-Blue® reagent following the manufacturer's protocol in RKO, UM10B, UM1, MCR5, and UMCC92 cells. Briefly, 10,000 cells were plated in 96-well plate in quadruplets. One day after seeding, cells were treated with a range of concentrations (0.1 to 30 micromolar). […] Only the viable cells convert the redox dye (reszurin) into a fluorescent product (resofurin). The emission of fluorescence (excitation 560 nm) was measured at […]. The IC50 value was calculated as the mean concentration of compounds required to inhibit cell proliferation as measured by the fluorescence at […] by 50 percent compared to the vehicle-treated controls.
(In general: The colour change of resazurin is a common sign of viable cells or microbes.)

In assay [4] the test system is Ba/F3-AZR cells (L858R+T790M+C797S-EGFR). The assay is described as follows: Osimertinib resistant Ba/F3-AZR ascites tumor model. It is filed as in vivo, nude mice. The following applies: mouse, in vivo, 30 mg/kg.
Assay [5] concerns MCR5 cells. The assay is described as follows: Clonogenic IC50, MCR5. It is filed as cell-based. The following applies: MCR5, MCR5. Here is the method:
It was determined if the response to Compound 8C correlates with inhibition of EGF-induced dimerization and degradation of EGFR. For this, PC9-AZR cells were treated for 1 hour with 1 μM Compound 8C and an additional 30 minutes with EGF (30 ng/ml) and 30 minutes with disuccinimidyl suberate (DSS, 150 μM) to cross-link interacting proteins. Lysates were prepared and immunoblotted with anti-EGFR antibodies.
The viability of cells upon treatment was assessed by CellTiter-Blue® reagent following the manufacturer's protocol in RKO, UM10B, UM1, MCR5, and UMCC92 cells. Briefly, 10,000 cells were plated in 96-well plate in quadruplets. One day after seeding, cells were treated with a range of concentrations (0.1 to 30 micromolar). 3-days post-treatment, cells were incubated with the CellTiter-Blue® reagent for 4 hr. Only the viable cells convert the redox dye (reszurin) into a fluorescent product (resofurin). The emission of fluorescence (excitation 560 nm) was measured at […]. The IC50 value was calculated as the mean concentration of compounds required to inhibit cell proliferation as measured by the fluorescence at […] by 50 percent compared to the vehicle-treated controls.

Assay [6] concerns UM10B cells. Put plainly: Clonogenic IC50, UM10B. It is filed as cell-based.
Assay [7] relates to UMCC92 cells. Put plainly: Clonogenic IC50, UMCC92. It is filed as cell-based.

For `COc1ccc(C2=NC3(CCNCC3)N(CC(=O)Nc3ccc(OC)c(Cl)c3)C2=O)cc1` [Compound 4, N-(3-chloro-4-methoxyphenyl)-2-(3-(4-methoxyphenyl)-2-oxo-1,4,8-triazaspiro[4.5]dec-3-en-1-yl)acetamide hydrochloride], the IC50 in assay [1] came to 1 µM; in assay [2] it was 7.6 µM. This compound displayed a viability at 15 µM in assay [3] of 61%.

Regarding `C=CC(=O)Nc1cc(Nc2nccc(-c3cn(C)c4ccccc34)n2)c(OC)cc1N(C)CCN(C)C` [osimertinib, reference compound], the survival result in assay [4] is “no difference”.

On to `COc1ccc(NC(=O)CSC2=NC3(CCN(C)CC3)N=C2c2ccc(C(C)(C)C)cc2)cc1Cl` [Compound 22], for which the IC50 worked out at 2.3 µM in assay [5], 0.3 µM in assay [6], 0.2 µM in assay [7] and 0.8 µM in assay [2]. The compound also displayed a viability at 7.5 µM in assay [3] of 55%.

On to `COc1ccc(C2=NC3(CCN(C)CC3)N=C2SCC(=O)Nc2ccc(OC)nc2)cc1` [Compound 12, 2-((3-(4-methoxyphenyl)-8-methyl-1,4,8-triazaspiro[4.5]deca-1,3-dien-2-yl)thio)-N-(6-methoxypyridin-3-yl)acetamide], for which the IC50 was 1.2 µM in assay [1] and 34 µM in assay [2]. The viability at 30 µM in assay [3] turned out to be 78%.

For `COc1ccc(C2=NC3(CCN(C(=O)OC(C)(C)C)CC3)N(CC(=O)Nc3ccc(OC)c(Cl)c3)C2=O)cc1` [Compound 3, tert-Butyl 4-(2-((3-chloro-4-methoxyphenyl)amino)-2-oxoethyl)-2-(4-methoxyphenyl)-3-oxo-1,4,8-triazaspiro[4.5]dec-1-ene-8-carboxylate], the values for the IC50 in assay [1] and in assay [2] were 7.8 µM and 9.8 µM, respectively. In assay [3], this compound displayed a viability at 30 µM of 70%.

With `CN1CCC2(CC1)N=C(SCC(=O)Nc1ccc(Cl)nc1)C(c1ccc(Br)cc1)=N2` [Compound 8B, 2-((3-(4-bromophenyl)-8-methyl-1,4,8-triazaspiro[4.5]deca-1,3-dien-2-yl)thio)-N-(6-chloropyridin-3-yl)acetamide], the half-inhibitory concentration (IC50) is 0.8 µM in assay [1] and 5.3 µM in assay [2]. The compound also gave a viability at 15 µM in assay [3] of 50%.

Regarding `Cc1ccc(C2=NC3(CCN(C)CC3)N=C2SCC(=O)Nc2ccc(F)c(F)c2)cc1` [Compound 25], the IC50 in assay [5] came to 69.3 µM; in assay [6], 2.6 µM; in assay [7] it was 2.1 µM; in assay [2] it was 3.7 µM. Moreover, the viability at 30 µM in assay [3] was found to be 78%.

Take `CN1CCC2(CC1)N=C(SCC(=O)NC1CCCCC1)C(c1ccc(Br)cc1)=N2` [Compound 8E, 2-((3-(4-bromophenyl)-8-methyl-1,4,8-triazaspiro[4.5]deca-1,3-dien-2-yl)thio)-N-cyclohexylacetamide]: the IC50 was 1.9 µM in assay [1] and 14.1 µM in assay [2]. Moreover, the viability at 30 µM in assay [3] was 84%.

Regarding `COc1ccc(NC(=O)CSC2=NC3(CCN(C)CC3)N=C2c2ccc(Br)cc2)cn1` [Compound 8A, 2-((3-(4-bromophenyl)-8-methyl-1,4,8-triazaspiro[4.5]deca-1,3-dien-2-yl)thio)-N-(6-methoxypyridin-3-yl)acetamide], the figures for the IC50 in assay [1] and in assay [2] were 1 µM and 8.8 µM, respectively. Besides, the viability at 30 µM in assay [3] worked out at 58%.

Regarding `CN1CCC2(CC1)N=C(SCC(=O)NC1CCCC1)C(c1ccc(Br)cc1)=N2` [Compound 8F, 2-((3-(4-bromophenyl)-8-methyl-1,4,8-triazaspiro[4.5]deca-1,3-dien-2-yl)thio)-N-cyclopentylacetamide], the IC50 in assay [1] worked out at 1 µM; in assay [2], 17.4 µM. The compound also returned a viability at 30 µM in assay [3] of 62%.

Take `COc1ccc(C2=NC3(CCNCC3)N=C2SCC(=O)Nc2ccc(OC)nc2)cc1` [Compound 11, 2-((3-(4-methoxyphenyl)-1,4,8-triazaspiro[4.5]deca-1,3-dien-2-yl)thio)-N-(6-methoxypyridin-3-yl)acetamide hydrochloride]: the IC50 in assay [1] amounted to 1.3 µM; in assay [2], 26 µM. In assay [3], this compound gave a viability at 30 µM of 52%.

Consider `CN1CCC2(CC1)N=C(SCC(=O)NCc1ccccc1)C(c1ccc(Br)cc1)=N2` [Compound 8G, N-benzyl-2-((3-(4-bromophenyl)-8-methyl-1,4,8-triazaspiro[4.5]deca-1,3-dien-2-yl)thio)acetamide], for which the IC50 in assay [1] was found to be 1.6 µM; in assay [2] it was 8.5 µM. This compound also came in with a viability at 30 µM in assay [3] of 40%.

For `COc1ccc(C2=NC3(CCN(C)CC3)N(CC(=O)Nc3ccc(OC)c(Cl)c3)C2=O)cc1` [Compound 5, N-(3-chloro-4-methoxyphenyl)-2-(3-(4-methoxyphenyl)-8-methyl-2-oxo-1,4,8-triazaspiro[4.5]dec-3-en-1-yl)acetamide], the IC50 worked out at 0.9 µM in assay [1], 34 µM in assay [7] and 11.6 µM in assay [2]. In assay [3], this compound returned a viability at 15 µM of 60%.

For the compound `COc1ccc(C2=NC3(CCN(C(=O)OC(C)(C)C)CC3)N=C2SCC(=O)Nc2ccc(OC)nc2)cc1` [Compound 10, tert-Butyl 2-(4-methoxyphenyl)-3-((2-((6-methoxypyridin-3-yl)amino)-2-oxoethyl)thio)-1,4,8-triazaspiro[4.5]deca-1,3-diene-8-carboxylate], the IC50 in assay [1] came to 1.7 µM; in assay [2] it was 21.8 µM. Also, the viability at 30 µM in assay [3] was found to be 81%.

Regarding `CN1CCC2(CC1)N=C(SCC(=O)Nc1ccncc1)C(c1ccc(Br)cc1)=N2` [Compound 8D, 2-((3-(4-bromophenyl)-8-methyl-1,4,8-triazaspiro[4.5]deca-1,3-dien-2-yl)thio)-N-(pyridin-4-yl)acetamide], the IC50 turned out to be 0.8 µM in assay [1] and 7.3 µM in assay [2]. Further, in assay [3], the viability at 7.5 µM was found to be 64%.
